Source: patent US8637679B2, “Process for the isolation of organic compounds useful for the treatment of cancer” (Council of Scientific and Industrial Research, priority 2011, dated 2014)

Tests used:
Molt-3 = assay: MTT cell viability assay, Molt-3; type: cell-based, human; details: Homo sapiens; Molt-3, 48 hrs
Method: (§1) Human cervical cancer cell lines (HeLa, ME-180 and SiHa), brain tumor cell lines (U87MG, U373MG, U87MG EGFRvIII, T98G, A172 and LN229), lymphoid leukemia (MOLT-3, MOLT-4, REH and CEMC-7), myloid leukemia (K562), pancreatic cancer (MIAPaCa-2, AsPC-1, Panc-1 and Panc 10.05), lung cancer (A549) and colon cancer (HCT116 and SW480) cell lines from American Type Culture Collection, Manassas, Va., USA were grown in IMDM or RPMI (cell specific) Medium supplemented with 10% fetal bovine serum and 1% antibiotic-antimycotic. Cells were cultured in 37° C. in an atmosphere of 5% CO2.
(§2) Viability of cancer cell lines after treatment as at the indicated times was determined by MTT assay. Briefly, 10,000 cells were plated in triplicate in 96 well plates and incubated for 24 and 48 hours in complete media in presence of varying dose of mahanine (0-50 μM). 100 ug MTT was added in each well. Incubate the plate for 1-4 hours at 37° C. and humidified 5% CO2 atmosphere. Absorbance was recorded at 550 nm with 96 well plate readers.

CEM C7 = assay: MTT cell viability assay, CEM C7; type: cell-based, human; details: Homo sapiens; CEM C7, 48 hrs
Method: as §1, §2

REH = assay: MTT cell viability assay, REH; type: cell-based, human; details: Homo sapiens, 48 hrs
Method: as §1, §2

U373MG = assay: MTT cell viability assay, U373MG; type: cell-based, human; details: Homo sapiens, U373 MG, 48 hrs
Method: as §1, §2

T98G = assay: MTT cell viability assay, T98G; type: cell-based, human; details: Homo sapiens, 48 hrs
Method: as §1, §2

NCIH23 = assay: MTT cell viability assay, NCIH23; type: cell-based, human; details: Homo sapiens, NCI-H23; NCIH23, 48 hrs
Method: as §2

SW480 = assay: MTT cell viability assay, SW480; type: cell-based, human; details: Homo sapiens; SW480, 48 hrs
Method: as §1, §2

HeLa [1] = assay: MTT cell viability assay, HeLa; type: cell-based, human
Method: as §1, §2

U87MGEGFRvIII = assay: MTT cell viability assay, U87MGEGFRvIII; type: cell-based; details: Homo sapiens, 48 hrs treatment
Method: as §1, §2

SiHa [2] = assay: MTT cell viability assay, SiHa; type: cell-based; details: Homo sapiens, 48 hr
Method: as §1, §2

[3] = system: Normal cells [heart, liver, muscle and peripheral blood mononuclear cells (PBMC)]; assay: In vitro testing on normal cells; type: cell-based, rat
Method: The cardiomyocytes from 2-day-old neonatal rat were isolated. Briefly, heart was excised and minced in pre warmed (37° C.) Ads buffer (1.2M NaCl, 198 mM HEPES, 54 mM KCl, 8.3 mM MgSO4, 55.4 mM glucose, 95 mM NaH2PO4), digested in typeII Collagenase 0.05% and Pancreatin in 3-successive digestions of 15 minutes each. Supernatant was pooled and cells palleted at 2000 g, 10 minutes. Cells were resuspended and plated in collagen coated T-25 flaks in Medium-199 enriched with 10% Fetal Bovine Serum and 1% antibiotic-antimycotic.
The hepatocytes from 2-day-old neonatal rat were isolated. Briefly, The liver were perfused through the portal vein with a calcium-free solution consisting of 150 mM NaCl, 2.8 mM KCl, 5.5 mM glucose, and 25 mM HEPES (pH 7.6) for 10 min, followed by mincing and digestion in DMEM containing 0.05% collagenase type IV for 30 minutes. The cells were centrifuged (2000 g, 10 minutes) and dispersed in DMEM enriched with 10% fetal Bovine Serum, 1% antibiotic-antimycotic.
The skeletal muscles from 2-day-old neonatal rat were isolated. Briefly, Soleus muscles were dissected minced and digested with 0.2% Type II Collagenase and 0.05% trypsin in Phosphate buffered Saline (PBS) pH 7.4, 0.15 M NaCl. […]
Viability of cancer cell lines after treatment as at the indicated times was determined by MTT assay. […] Absorbance was recorded at 550 nm with 96 well plate readers.

HeLa [4] = assay: 7-AAD flow cytometric apoptosis, HeLa; type: cell-based, human; details: 25 μM mahanine
Method: (§3) U87MG, LN229, HeLa, SiHa and ME180 (1×10^6 cells) cells were cultured in 6-well plates in presence or absence of Mahanine (25 μM) for 24 hrs. Cells were washed in PBS, incubated with 7-Aminoactinomycin D (7-AAD) at 4° C. for 20 min and processed. Data acquisition was done on a FACSCalibur flow cytometer (BD) at excitation wavelength at 488 nm and emission wavelength at 647 nm and analyzed with CellQuestPro software.

SiHa [5] = assay: 7-AAD flow cytometric apoptosis, SiHa; type: cell-based, human; details: 25 μM mahanine
Method: as §3

Hsp90β = Hsp90β (Homo sapiens, UniProt P08238); assay: γ-ATP sepharose binding assay, Hsp90β; details: mahanine at 50 and 100 μM
Method: 5 μg of purified Hsp90α and Hsp90β were pre-incubated separately on ice with 200 μL incubation buffer (10 mM Tris-Hcl, 50 mM KCl, 5 mM MgCl2, 2 mM DTT, 20 mM Na2MoO4, 0.01% NP40, pH 7.5) containing mahanine or 17-AAG and incubated for 30 mins on ice. After the incubation, 25 μL pre-equilibrated γ-phosphate ATP sepharose added and again incubated at 37° C. with frequent agitation.
Sepharose subsequently washed and analyzed by SDS-PAGE. Then the blot was probed with anti Hsp90 antibody and developed by ECL.

[6] = system: intracellular Ca2+ in MIAPaCa-2; assay: Intracellular Ca2+ measurement (Fluo-3/AM); type: cell-based, human; details: MIAPaCa-2, with and without extra-cellular Ca2+
Method: MIAPaCa-2 cells (3×10^6), treated with mahanine, were washed in 1× Hanks Balanced Salt Solution (HBSS) [Gibco, Invitrogen Corporation, USA] and then loaded with Fluo-3/AM (2 μM, Calbiochem, Germany) in HBSS containing 1.26 mM CaCl2. The cells were incubated at 37° C. for 30 min in dark with gentle agitation. All extracellular Fluo-3/AM was removed by two-three times washing in aforesaid buffer. The level of cytoplasmic Ca^2+ within Fluo-3/AM loaded MIAPaCa-2 was determined in time dependent manner in the absence and presence of CaCl2 (1.26 mM CaCl2).

[7] = system: orthotopic pancreatic tumour; assay: Orthotopic pancreatic tumour model; type: in vivo; details: athymic nude mice

Sequence of Hsp90β (P08238 whole entry): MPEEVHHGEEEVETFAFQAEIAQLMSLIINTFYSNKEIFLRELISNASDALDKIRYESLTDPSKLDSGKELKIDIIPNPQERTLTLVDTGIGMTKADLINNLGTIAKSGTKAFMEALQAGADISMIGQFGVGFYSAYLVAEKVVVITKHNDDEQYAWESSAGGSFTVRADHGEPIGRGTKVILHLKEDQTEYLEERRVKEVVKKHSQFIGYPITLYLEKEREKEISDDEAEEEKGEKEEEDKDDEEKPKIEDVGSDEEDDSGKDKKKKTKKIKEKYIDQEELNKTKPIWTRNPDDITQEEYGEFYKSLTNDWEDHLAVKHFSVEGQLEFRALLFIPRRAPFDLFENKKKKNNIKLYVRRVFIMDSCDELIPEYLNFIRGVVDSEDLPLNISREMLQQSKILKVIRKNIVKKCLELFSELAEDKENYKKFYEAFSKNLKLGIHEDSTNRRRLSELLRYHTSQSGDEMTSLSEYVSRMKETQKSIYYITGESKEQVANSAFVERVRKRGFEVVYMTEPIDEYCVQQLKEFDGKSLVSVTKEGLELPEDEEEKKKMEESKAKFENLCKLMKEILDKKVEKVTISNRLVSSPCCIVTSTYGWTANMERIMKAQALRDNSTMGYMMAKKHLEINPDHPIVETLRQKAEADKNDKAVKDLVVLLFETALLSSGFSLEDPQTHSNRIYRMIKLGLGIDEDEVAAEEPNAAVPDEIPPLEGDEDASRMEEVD

In the case of `CC(C)=CCCC1(C)C=Cc2c(c(C)cc3c2[nH]c2cc(O)ccc23)O1` (stereo not drawn) [Mahanine, mahanine], the IC50 (Molt-3) is reported as 10.6 ± 0.3 µM, the IC50 (CEM C7) is reported as 10.2 ± 0.1 µM and the IC50 (REH) is reported as 11.6 ± 0.7 µM. For the same compound, the IC50 (U373MG) was 16.8 ± 0.6 µM, the IC50 (T98G) was 16.1 ± 0.9 µM and the IC50 (NCIH23) was 7.08 ± 0.1 µM. For the same compound, the IC50 (SW480) was 16 ± 0.3 µM, the IC50 (HeLa [1]; 48 hrs) was 13.2 ± 1.1 µM and the IC50 (HeLa [1]; Homo sapiens, 48 h) was 10.9 µM. The IC50 (U87MGEGFRvIII) was ~14 µM, the IC50 (SiHa [2]) was 14.5 µM and the inhibition at 50 µM ([3]; PBMC, mahanine at 50 μM, normal rat tissue cells, Vero and WI-38) was 15 to 20%. For the same compound, the “sensitivity of normal cells” value ([3]; heart, liver, muscle and PBMC, in vitro) was “less sensitive”, the “apoptosis (7-AAD+ve cells)” value (HeLa [4]) was 92.28% and the “apoptosis (7-AAD+ve cells)” value (SiHa [5]) was 97.13%. For the same compound, the “effect on ATP binding to purified Hsp90” value (Hsp90β) was “could not reduce”, the “time to maximum enhancement of intracellular Ca2+ pool” value [6] was ≤ 15 min and the “orthotopic pancreatic tumour growth” value [7] was “tumour growth inhibition”.
